Experimental findings from patent publication US20250019701A1, “TREATMENT FOR INFLAMMATORY DISEASE” (priority 2021, published 2025) are described below.

Data set [1] deals with THP-1 cells. It counts as cell-based, human.
For data set [2], the system named is A549 cells. It counts as cell-based, human.
Data set [3] has as its system THP-1 cells. The data set is classed as cell-based, human. Conditions: 48 hours ligand treatment.
For data set [4], the system named is A549 cells.
A further data set deals with Vero cells. Conditions: etifoxine 30 μM, counting adherent cells.
A further data set deals with ASC. It counts as cell-based, human. The settings on record: THP-1; after ORF8 transfection; 30 uM Etifoxine or 200 nM PK11195 for 24 hours.
Data set [5] deals with T1, NLRP3 (NLR family pyrin domain containing 3) (human, UniProt Q96P20 1-1036).
T1 construct: Endogenous protein in the THP-1 cell lysate; also called NRLP3
As to the kind of experiment: co-immunoprecipitation from THP-1 cells, TSPO as bait, western blot.

T1 sequence (Q96P20 whole entry, the tested form may be a part): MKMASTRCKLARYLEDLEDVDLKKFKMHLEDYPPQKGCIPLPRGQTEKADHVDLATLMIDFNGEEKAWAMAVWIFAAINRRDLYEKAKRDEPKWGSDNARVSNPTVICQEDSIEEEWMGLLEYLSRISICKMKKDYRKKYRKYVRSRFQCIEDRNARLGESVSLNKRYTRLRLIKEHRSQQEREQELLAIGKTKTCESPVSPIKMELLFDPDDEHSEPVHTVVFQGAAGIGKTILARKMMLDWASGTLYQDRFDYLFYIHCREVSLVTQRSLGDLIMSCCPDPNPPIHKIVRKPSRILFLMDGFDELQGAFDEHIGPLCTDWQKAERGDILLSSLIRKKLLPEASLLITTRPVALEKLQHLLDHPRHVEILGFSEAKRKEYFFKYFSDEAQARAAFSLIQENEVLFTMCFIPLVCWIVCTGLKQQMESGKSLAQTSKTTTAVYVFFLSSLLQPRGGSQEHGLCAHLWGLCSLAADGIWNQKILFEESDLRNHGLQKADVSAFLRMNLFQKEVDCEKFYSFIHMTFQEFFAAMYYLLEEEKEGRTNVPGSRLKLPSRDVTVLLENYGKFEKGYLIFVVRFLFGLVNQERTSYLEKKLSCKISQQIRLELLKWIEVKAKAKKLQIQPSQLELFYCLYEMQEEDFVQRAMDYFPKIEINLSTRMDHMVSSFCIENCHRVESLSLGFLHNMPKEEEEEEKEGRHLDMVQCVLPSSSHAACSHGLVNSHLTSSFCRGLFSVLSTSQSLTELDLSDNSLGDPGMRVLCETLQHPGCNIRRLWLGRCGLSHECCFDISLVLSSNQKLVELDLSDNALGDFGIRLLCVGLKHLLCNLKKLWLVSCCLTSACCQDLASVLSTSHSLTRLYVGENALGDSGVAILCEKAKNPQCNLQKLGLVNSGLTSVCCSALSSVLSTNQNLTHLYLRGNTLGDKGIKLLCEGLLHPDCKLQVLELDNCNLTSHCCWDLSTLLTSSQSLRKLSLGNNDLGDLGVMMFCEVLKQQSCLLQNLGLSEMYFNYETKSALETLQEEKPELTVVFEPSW

As for `CCN(Cc1ccccc1)C(=O)Cn1c(=O)n(C)c2cnc(-c3ccccc3)nc21` [XBD173], the “cell death by LDH release (qualitative)” value with THP-1 cells [1] and with A549 cells [2] was “confer cytoprotection” in each case. Further, in the data set on THP-1 cells [3], the “PI cell death (qualitative)” value is listed as “decrease”. In addition, the “PI cell death, ORF3a induced cytotoxicity (qualitative)” value with A549 cells [4] was “significant decrease”.

Regarding `CCNC1=Nc2ccc(Cl)cc2C(C)(c2ccccc2)O1` (stereo not shown) [etifoxine], the “cell death by LDH release (qualitative)” value in the data set with THP-1 cells [1] and with A549 cells [2] was “confer cytoprotection” throughout. Besides, the “reduction of cell death” value with Vero cells is listed as “approximately 50%”. Besides, the “ASC protein levels co-immunoprecipitated with TSPO (qualitative)” value in the data set with ASC is listed as “decrease in protein levels”. Besides, in the data set on A549 cells [4], the “PI cell death, ORF3a induced cytotoxicity (qualitative)” value is recorded as “significant decrease”.

As to `CCCCCCN(CCCCCC)C(=O)Cc1c(-c2ccc(F)cc2)[nH]c2ccccc12` [FGIN, FGIN 1-27], the “cell death by LDH release (qualitative)” value in the data set on THP-1 cells [1] and in the data set on A549 cells [2] was “confer cytoprotection” each time. Further, in the data set on THP-1 cells [3], the “PI cell death (qualitative)” value is listed as “decrease”. In the data set on A549 cells [4], the “PI cell death, ORF3a induced cytotoxicity (qualitative)” value is recorded as “significant decrease”.

For the molecule `CCC(C)N(C)C(=O)c1cc2ccccc2c(-c2ccccc2Cl)n1` (stereo not shown) [PK11195], the “cell death by LDH release (qualitative)” value with THP-1 cells [1] and in the data set with A549 cells [2] was “confer cytoprotection” in each case. For the same molecule, the “ASC protein levels co-immunoprecipitated with TSPO (qualitative)” value in the data set on ASC is listed as “decrease in protein levels”. Besides, the “PI cell death (qualitative)” value in the data set with THP-1 cells [3] is listed as “decrease”. In addition, the “PI cell death, ORF3a induced cytotoxicity (qualitative)” value with A549 cells [4] is reported as “significant decrease”.

B1: TSPO (the 18 kDa translocator protein) (other)
chain: APPWVPAMGFTLAPSLGCFVGSRFVHGEGLRWYAGLQKPSWHPPHWVLGPVWGTLYSAMGYGSYLVWKELGGFTEKAVVPLGLYTGQLALNWAWPPIFFGARQMGWALVDLLLVSGAAAATTVAWYQVSPLAARLLYPYLAWLAFTTTLNYCVWRDNHGWRGGRRLPE
notes: also called peripheral benzodiazepine receptor
With B1, in data set [5], the binding result is given as “no binding”.
